Inhibition and IC50 data for 31 molecules are collected here from US20110319431A1, “Bis Aromatic Compounds for Use as LTC4 Synthase Inhibitors” (BIOLIPOX AB, priority 2009, published 2011).

Molecules are shown by their SMILES.

The first test addresses T1, Recombinant human LTC4 synthase (Homo sapiens, UniProt Q16873).
T1 construct: made in house; host or cells: Pichia pastoris
T1 sequence (Q16873 1-150): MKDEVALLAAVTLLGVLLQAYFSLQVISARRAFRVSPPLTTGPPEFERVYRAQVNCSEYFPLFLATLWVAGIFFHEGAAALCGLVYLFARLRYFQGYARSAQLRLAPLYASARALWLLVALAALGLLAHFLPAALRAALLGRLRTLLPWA
The test is described as follows: In vitro LTC4 synthase assay (LTA4 to LTC4, HTRF detection). The format is biochemical. The settings on record: 5 min; total concentration of title compounds in the assay 10 μM. On the procedure: In the assay, LTC4 synthase catalyses the reaction where the substrate LTA4 is converted to LTC4. Recombinant human LTC4 synthase is expressed in Piccia pastoralis and the purified enzyme is dissolved in 25 mM tris-buffer pH 7.8 supplemented with 0.1 mM glutathione (GSH) and stored at −80° C. The assay is performed in phosphate buffered saline (PBS) pH 7.4 and 5 mM GSH in 384-well plates.
The following is added chronologically to each well:
1. 48 μL LTC4 synthase in PBS with 5 mM GSH. The total protein concentration in this solution is 0.5 μg/mL. 2. 1 μL inhibitor in DMSO (final concentration 10 μM). 3. Incubation of the plate at room temperature for 10 min. 4. 1 μL LTA4 (final concentration 2.5 μM). 5. Incubation of the plate at room temperature for 5 min. 6. 10 μL of the incubation mixture is analysed using homogenous time resolved fluorescent (HTRF) detection.
`CCCCCC[S+]([O-])c1ccc(C(=O)c2ccc(N(C)c3ccc(Cl)cc3)cc2)cc1C(=O)O` (stereo not shown) [Example 1:1, 5-{4-[(4-Chlorophenyl)(methyl)amino]benzoyl}-2-(1-hexylsulfinyl)benzoic acid]: the inhibition (as a rule, the drop in the measured response relative to a control, in per cent) at 10 µM was determined as 100%.

For the molecule `CN(c1ccc(Cl)cc1)c1ccc(C(=O)c2ccc([S+]([O-])c3ccc(F)c(F)c3)c(C(=O)O)c2)nc1` (stereo not shown) [Example 1:13, 5-{5-[(4-Chlorophenyl)methylamino]pyridine-2-carbonyl}-2-(3,4-difluorophenyl-sulfinyl)benzoic acid], the inhibition at 10 µM stood at 99%. The same measure, in the same setting: as for `CN(c1ccc(Cl)cc1)c1ccc(C(=O)c2ccc([S+]([O-])c3ccc(Cl)cc3)c(C(=O)O)c2)cc1` (stereo not shown) [Example 1:2, 5-{4-[(4-Chlorophenyl)(methyl)amino]benzoyl}-2-(4-chlorophenylsulfinyl)benzoic acid], the figure is 100%; as for `CN(c1ccc(Cl)cc1)c1ccc(C(=O)c2ccc(Sc3ccc(F)c(F)c3)c(C(=O)O)c2)cc1` [2:3, 5-{4-[(4-Chlorophenyl)(methyl)amino]benzoyl}-2-(3,4-difluorophenyl-sulfanyl)benzoic acid], 96%; as for `CCCCCCSc1ccc(C(=O)c2ccc(N(C)c3ccc(Cl)cc3)cc2)cc1C(=O)O` [Example 2:1, 5-{4-[(4-Chlorophenyl)(methyl)amino]benzoyl}-2-(1-hexylsulfanyl)benzoic acid], 99%. As to `CN(c1ccc(Cl)cc1)c1ccc(C(=O)c2ccc(Sc3cccc(Cl)c3)c(C(=O)O)c2)cc1` [Example 2:2, 5-{4-[(4-Chlorophenyl)(methyl)amino]benzoyl}-2-(3-chlorophenylsulfanyl)-benzoic acid], the inhibition at 10 µM came out at 98%.

The test is the same for the next values; noted with them: Table 4, title compounds of Example 4.
On to `COc1ccc(Sc2cc(C(=O)O)cc(C(=O)c3ccc(N(C)c4ccc(Cl)cc4)cc3)c2)cc1OC` [4:7, 3-{4-[(4-Chlorophenyl)(methyl)amino]benzoyl}-5-(3,4-dimethoxyphenyl-sulfanyl)benzoic acid], for which the IC50 (commonly the point on the concentration scale where inhibition reaches its midpoint) was found to be 328 nM. As to `CN(c1ccc(Cl)cc1)c1ccc(C(=O)c2cc(Sc3cccc(Cl)c3)cc(C(=O)O)c2)cc1` [4:6, 3-{4-[(4-Chlorophenyl)(methyl)amino]benzoyl}-5-(3-chlorophenyl-sulfanyl)benzoic acid], the IC50 turned out to be 165 nM. As for `CN(c1ccc(Cl)cc1)c1ccc(C(=O)c2cc(Sc3ccc(F)c(F)c3)cc(C(=O)O)c2)cc1` [4:9, 3-{4-[(4-Chlorophenyl)(methyl)amino]benzoyl}-5-(3,4-difluorophenyl-sulfanyl)benzoic acid], the IC50 was 88 nM.

The test is the same for the next values; noted with them: title compounds of the Examples.
As to `O=C(c1ccc([S+]([O-])c2ccc(C(F)(F)F)cc2)c(C(=O)O)c1)c1ccc(N(CC2CC2)c2ccc(Cl)cc2)cn1` (stereo not shown) [Example 1:14, 5-{5-[(4-Chlorophenyl)cyclopropylmethylamino]pyridine-2-carbonyl}-2-(4-tri-fluoromethylphenylsulfinyl)benzoic acid], the IC50 stood at 48 nM.

Turning to `CN(c1ccc(Cl)cc1)c1ccc(C(=O)c2ccc([S+]([O-])C34CC5CC(CC(C5)C3)C4)c(C(=O)O)c2)cc1` (stereo not shown) [1:6, 2-(1-Adamantylsulfinyl)-5-{4-[(4-chlorophenyl)methylamino]benzoyl}benzoic acid], the IC50 was 96 nM.

For the molecule `O=C(c1ccc(N(CC2CC2)c2ccc(Cl)cc2)cc1)c1ccc([S+]([O-])c2ccccc2)c(C(=O)O)c1` (stereo not shown) [Example 1:11, 5-{4-[(4-Chlorophenyl)(cyclopropylmethyl)amino]benzoyl}-2-phenylsulfinyl-benzoic acid], the IC50 came out at 26 nM. Turning to `CN(c1ccc(Cl)cc1)c1ccc(C(=O)c2ccc([S+]([O-])C3CCCCC3)c(C(=O)O)c2)cc1` (stereo not shown) [1:5, 5-{4-[(4-Chlorophenyl)(methyl)amino]benzoyl}-2-(cyclohexylsulfinyl)benzoic acid], the IC50 came out at 134 nM.

For `O=C(c1ccc(Sc2cccc(C(F)(F)F)c2)c(C(=O)O)c1)c1ccc(N(CC2CC2)c2ccc(Cl)cc2)cn1` [2:12, 5-{5-[(4-Chlorophenyl)cyclopropylmethylamino]pyridine-2-carbonyl}-2-(3-trifluoromethylphenylsulfanyl)benzoic acid], the IC50 came out at 76 nM. Take `COc1ccc(Sc2cc(C(=O)O)cc(C(=O)c3ccc(N(C)c4ccc(Cl)cc4)cc3)c2)cc1OC` [2:27, 3-(4-((4-Chlorophenyl)(methyl)amino)benzoyl)-5-(3,4-dimethoxyphenylsulfanyl)benzoic acid]: the IC50 came out at 328 nM.

Turning to `COc1ccc(Sc2ccc(C(=O)c3ccc(OCc4cccc(Cl)c4)cn3)cc2C(=O)O)cc1` [Example 2:22, 5-[5-(3-Chlorobenzyloxy)pyridine-2-carbonyl]-2-(4-methoxyphenyl-sulfanyl)benzoic acid], the IC50 came to 252 nM.

For `CN(c1ccc(Cl)cc1)c1ccc(C(=O)c2cc(Sc3ccccc3)cc(C(=O)O)c2)nc1` [2:24, 3-{5-[(4-Chlorophenyl)methylamino]pyridine-2-carbonyl}-5-phenylsulfanyl-benzoic acid], the IC50 came to 135 nM.

As for `O=C(c1ccc(Sc2ccc(F)cc2)c(C(=O)O)c1)c1ccc(N(CC2CC2)c2ccc(Cl)cc2)cn1` [2:11, 5-{5-[(4-Chlorophenyl)cyclopropylmethylamino]pyridine-2-carbonyl}-2-(4-fluorophenylsulfanyl)benzoic acid], the IC50 was 46 nM. Take `CCCCCC[S+]([O-])c1ccc(C(=O)c2ccc(N(C)c3ccc(Cl)cc3)cc2)cc1C(=O)O` (stereo not shown) [Example 1:1, 5-{4-[(4-Chlorophenyl)(methyl)amino]benzoyl}-2-(1-hexylsulfinyl)benzoic acid]: the IC50 is 56 nM.

Regarding `O=C(c1ccc(Sc2ccc(F)c(F)c2)c(C(=O)O)c1)c1ccc(OCc2cccc(Cl)c2)cn1` [Example 2:21, 5-[5-(3-Chlorobenzyloxy)pyridine-2-carbonyl]-2-(3,4-difluorophenyl-sulfanyl)benzoic acid], the IC50 worked out at 119 nM. Take `O=C(c1ccc(Sc2ccccc2Cl)c(C(=O)O)c1)c1ccc(N(CC2CC2)c2ccc(Cl)cc2)cn1` [2:10, 5-{5-[(4-Chlorophenyl)cyclopropylmethylamino]pyridine-2-carbonyl}-2-(2-chlorophenylsulfanyl)benzoic acid]: the IC50 is 22 nM. On the same count and under the same terms, as for `CN(c1ccc(Cl)cc1)c1ccc(C(=O)c2cc(C(=O)O)cc([S+]([O-])c3ccc(F)c(F)c3)c2)cc1` (stereo not shown) [Example 1:19, 3-{4-[(4-Chlorophenyl)(methyl)amino]benzoyl}-5-(3,4-difluorophenylsulfinyl)-benzoic acid], the figure is 212 nM; as for `CCCCCCSc1ccc(C(=O)c2ccc(N(C)c3ccc(Cl)cc3)cn2)cc1C(=O)O` [2:5], 129 nM. The same measure, in the same setting: the same measure for `CN(c1ccc(Cl)cc1)c1ccc(C(=O)c2ccc([S+]([O-])c3ccc(F)c(F)c3)c(C(=O)O)c2)nc1` (stereo not shown) [Example 1:13, 5-{5-[(4-Chlorophenyl)methylamino]pyridine-2-carbonyl}-2-(3,4-difluorophenyl-sulfinyl)benzoic acid]: 87 nM; for `COc1ccc(Sc2ccc(C(=O)c3ccc(N(CC4CC4)c4ccc(Cl)cc4)cn3)cc2C(=O)O)cc1` [2:20, 5-{5-[(4-Chlorophenyl)cyclopropylmethylamino]pyridine-2-carbonyl}-2-(4-methoxyphenylsulfanyl)benzoic acid]: 85 nM. With `CN(c1ccc(Cl)cc1)c1ccc(C(=O)c2ccc([S+]([O-])c3ccc(Cl)cc3)c(C(=O)O)c2)cc1` (stereo not shown) [Example 1:2, 5-{4-[(4-Chlorophenyl)(methyl)amino]benzoyl}-2-(4-chlorophenylsulfinyl)benzoic acid], the IC50 was 66 nM.

As for `O=C(c1ccc([S+]([O-])c2cccc(Cl)c2)c(C(=O)O)c1)c1ccc(N(CC2CC2)c2ccc(Cl)cc2)cn1` (stereo not shown) [1:18, 2-(3-Chlorophenylsulfinyl)-5-{5-[(4-chlorophenyl)cyclopropylmethylamino]-pyridine-2-carbonyl}benzoic acid], the IC50 was 31 nM. Regarding `CN(c1ccc(Cl)cc1)c1ccc(C(=O)c2ccc(Sc3ccc(F)c(F)c3)c(C(=O)O)c2)cc1` [2:3, 5-{4-[(4-Chlorophenyl)(methyl)amino]benzoyl}-2-(3,4-difluorophenyl-sulfanyl)benzoic acid], the IC50 turned out to be 51 nM. On to `CCCCCC[S+]([O-])c1cc(C(=O)O)cc(C(=O)c2ccc(N(C)c3ccc(Cl)cc3)cn2)c1` (stereo not shown) [Example 1:20, 3-{5-[(4-Chlorophenyl)methylamino]pyridine-2-carbonyl}-5-(1-hexylsulfinyl)-benzoic acid], for which the IC50 worked out at 404 nM. Still for that read-out and setting: the same measure for `O=C(c1ccc(Sc2ccc(Cl)cc2)c(C(=O)O)c1)c1ccc(N(CC2CC2)c2ccc(Cl)cc2)cn1` [2:9, 5-{5-[(4-Chlorophenyl)cyclopropylmethylamino]pyridine-2-carbonyl}-2-(4-chlorophenylsulfanyl)benzoic acid]: 74 nM; for `CCCCCCSc1ccc(C(=O)c2ccc(N(C)c3ccc(Cl)cc3)cc2)cc1C(=O)O` [Example 2:1, 5-{4-[(4-Chlorophenyl)(methyl)amino]benzoyl}-2-(1-hexylsulfanyl)benzoic acid]: 172 nM. Regarding `CN(c1ccc(Cl)cc1)c1ccc(C(=O)c2ccc(Sc3cccc(Cl)c3)c(C(=O)O)c2)cc1` [Example 2:2, 5-{4-[(4-Chlorophenyl)(methyl)amino]benzoyl}-2-(3-chlorophenylsulfanyl)-benzoic acid], the 50% inhibitory concentration (IC50) was determined as 73 nM. Regarding `CCCCCC[S+]([O-])c1ccc(C(=O)c2ccc(N(CC3CC3)c3ccc(Cl)cc3)cn2)cc1C(=O)O` (stereo not shown) [1:16, 5-{5-[(4-Chlorophenyl)cyclopropylmethylamino]pyridine-2-carbonyl}-2-(1-hexyl-sulfinyl)benzoic acid], the IC50 is 35 nM. As to `CN(c1ccc(Cl)cc1)c1ccc(C(=O)c2cc(Sc3cccc(Cl)c3)cc(C(=O)O)c2)cc1` [2:26, 3-(4-((4-Chlorophenyl)(methyl)amino)benzoyl)-5-(3-chlorophenylsulfanyl)benzoic acid], the IC50 is 165 nM.

`CCCC[S+]([O-])c1ccc(C(=O)c2ccc(N(C)c3ccc(Cl)cc3)cc2)cc1C(=O)O` (stereo not shown) [1:7, 2-(1-Butylsulfinyl)-5-{4-[(4-chlorophenyl)(methyl)amino]benzoyl}benzoic acid]: the IC50 was found to be 160 nM. `CN(c1ccc(Cl)cc1)c1ccc(C(=O)c2cc(Sc3ccc(F)c(F)c3)cc(C(=O)O)c2)cc1` [2:29, 3-(4-((4-Chlorophenyl)(methyl)amino)benzoyl)-5-(3,4-difluorophenylsulfanyl)benzoic acid]: the IC50 stood at 88 nM. For the molecule `COc1cccc(Sc2ccc(C(=O)c3ccc(N(CC4CC4)c4ccc(Cl)cc4)cn3)cc2C(=O)O)c1` [2:19, 5-{5-[(4-Chlorophenyl)cyclopropylmethylamino]pyridine-2-carbonyl}-2-(3-methoxy-phenylsulfanyl)-benzoic acid], the IC50 is 81 nM.
